Data on 24 molecules can be found in ChEMBL document CHEMBL1138625, “Synthesis and evaluation of novel phenoxypropanolamine derivatives containing acetanilides as potent and selective beta3-adrenergic receptor agonists” (Bioorg Med Chem, 2009).

Data set [1] has as its target Beta-2 adrenergic receptor (Homo sapiens, UniProt P07550).
Description: Agonist activity at human beta2 adrenergic receptor expressed in CHO cells assessed as cAMP accumulation
For data set [2], the target named is Beta-3 adrenergic receptor (Homo sapiens) (UniProt P13945).
For data set [3], the target named is Beta-1 adrenergic receptor (Homo sapiens) (UniProt P08588). The data set can be described thus: Agonist activity at human adrenergic receptor expressed in CHO cells assessed as cAMP accumulation.
For data set [4] the target is unchanged. As to conditions: CHO.
Data set [5] deals with Mus musculus. The data set can be described thus: Hypoglycemic activity in diabetic kk mouse assessed as reduction in plasma glucose level at 30 mg/kg, po administered once daily for 4 days by colorimetry. Set-up: scale not given: the % may be the effect or the level left. Type of data set: functional.
A short description of data set [6]: Oral bioavailability in rat. Type of data set: ADME, organism-based. Particulars: in vivo.

pEC50: −log10 of the molar value. A value given as a limit tells only on which side of the number the result lay.

What is called pEC50 is the negative decadic logarithm of the EC50, by convention in mol/L. For orientation: bioavailability means the share of a dose that reaches the circulation, judged against a reference dose that is usually intravenous.

Sequence of Beta-3 adrenergic receptor (Homo sapiens) (P13945 whole entry, looked up): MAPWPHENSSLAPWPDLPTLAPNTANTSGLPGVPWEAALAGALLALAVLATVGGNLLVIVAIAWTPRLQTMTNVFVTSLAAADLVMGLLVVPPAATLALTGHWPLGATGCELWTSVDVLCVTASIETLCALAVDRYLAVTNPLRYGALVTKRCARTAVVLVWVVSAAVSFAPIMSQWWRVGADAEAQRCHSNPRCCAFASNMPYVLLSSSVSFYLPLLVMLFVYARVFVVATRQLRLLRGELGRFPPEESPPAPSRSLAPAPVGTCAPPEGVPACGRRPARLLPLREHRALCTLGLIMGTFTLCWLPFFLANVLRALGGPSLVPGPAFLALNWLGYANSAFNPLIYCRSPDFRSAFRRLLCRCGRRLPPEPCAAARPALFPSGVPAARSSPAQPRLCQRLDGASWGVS
Sequence of Beta-2 adrenergic receptor (P07550 whole entry): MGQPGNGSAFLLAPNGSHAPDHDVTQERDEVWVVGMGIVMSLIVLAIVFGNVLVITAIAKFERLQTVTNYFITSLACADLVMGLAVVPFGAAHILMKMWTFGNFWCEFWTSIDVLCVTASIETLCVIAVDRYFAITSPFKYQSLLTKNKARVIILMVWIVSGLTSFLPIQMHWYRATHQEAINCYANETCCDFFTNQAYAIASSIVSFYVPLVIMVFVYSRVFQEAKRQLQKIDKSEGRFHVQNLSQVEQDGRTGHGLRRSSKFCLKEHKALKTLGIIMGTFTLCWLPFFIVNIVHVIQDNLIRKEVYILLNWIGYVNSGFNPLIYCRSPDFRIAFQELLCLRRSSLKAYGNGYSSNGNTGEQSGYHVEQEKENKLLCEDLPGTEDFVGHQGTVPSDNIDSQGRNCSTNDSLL

`O=C(Cc1ccccn1)Nc1ccc(CCNC[C@H](O)COc2cccc3[nH]c4ccccc4c23)cc1` had a pEC50 in data set [1] of less than 4.00.

Regarding `O=C(Cc1nccn1Cc1ccc(Cl)cc1)Nc1ccc(CCNC[C@H](O)COc2ccccc2)cc1`, the pEC50 in data set [2] was 6.57; in data set [3], 7.13; in data set [1], less than 4.00. Moreover, in data set [4], the Intrinsic activity came out at 0.13.

As for `O=C(Cc1nccn1Cc1ccccc1)Nc1ccc(CCNC[C@H](O)COc2ccccc2)cc1`, the negative-log EC50 (pEC50) was 6.74 in data set [2], 6.89 in data set [3] and less than 4.00 in data set [1]. The Intrinsic activity in data set [4] turned out to be 0.2. In data set [5], the Activity is listed as 43%.

As to `O=C(Cc1ncc[nH]1)Nc1ccc(CCNC[C@H](O)COc2ccccc2)cc1`, the pEC50 was 5.02 in data set [2], 6.29 in data set [3] and less than 4.00 in data set [1]. Further, the Intrinsic activity in data set [4] was 0.26.

Take `O=C(Cc1ccccn1)Nc1ccc(CCNC[C@H](O)COc2ccccc2)cc1`: the pEC50 is 3.92 in data set [2], less than 4.00 in data set [3] and less than 4.00 in data set [1]. The same molecule returned an Intrinsic activity in data set [4] of 0.11. The molecule further had a bioavailability in data set [6] of 27%.

Regarding `O=C(Cc1cccc(OCc2ccccc2)n1)Nc1ccc(CCNC[C@H](O)COc2ccccc2)cc1`, the negative logarithm of the EC50 (pEC50) in data set [2] is 5.60; in data set [3], 6.70; in data set [1], less than 4.00. Further, the Intrinsic activity in data set [4] worked out at 0.12.

For `Cc1cc(C)nc(CC(=O)Nc2ccc(CCNC[C@H](O)COc3ccccc3)cc2)c1`, the pEC50 in data set [2] was 6.55; in data set [3], 6.51; in data set [1], less than 4.00. Besides, the Intrinsic activity in data set [4] was 0.17.

On to `CN(C(=O)Cc1nccn1Cc1ccccc1)c1ccc(CCNC[C@H](O)COc2ccccc2)cc1`, for which the negative logarithm of the EC50 (pEC50) in data set [2] is 6.55; in data set [3], less than 4.00; in data set [1] it was less than 4.00. This molecule had an Intrinsic activity in data set [4] of 0.04. For the same molecule, in data set [5], the Activity was determined as 38%.

`O=C(Cc1ccccn1)Nc1ccc(CCNC[C@H](O)COc2cccnc2)cc1`: the pEC50 in data set [1] is less than 4.00.

`O=C(Cc1ccccn1)Nc1ccc(CCNC[C@H](O)COc2ccc(O)cc2)cc1`: the pEC50 is 6.54 in data set [2], 5.57 in data set [3] and less than 4.00 in data set [1]. In addition, in data set [4], the Intrinsic activity is 0.14. In data set [6], this molecule came in with a bioavailability of 2%.

As to `O=C(Cc1nccn1Cc1ccc(Br)cc1)Nc1ccc(CCNC[C@H](O)COc2ccccc2)cc1`, the negative logarithm of the EC50 (pEC50) in data set [2] was 6.72; in data set [3], 7.15; in data set [1], less than 4.00. This molecule also yielded an Intrinsic activity in data set [4] of 0.3.

Consider `CC(Cc1ccc(NC(=O)Cc2nccn2Cc2ccccc2)cc1)NC[C@H](O)COc1ccccc1` (stereo in doubt; 27b), for which the pEC50 in data set [1] is less than 4.00.

Consider `CS(=O)(=O)Nc1ccc(OC[C@@H](O)CNCCc2ccc(NC(=O)Cc3ccccn3)cc2)cc1`, for which the pEC50 in data set [2], in data set [3] and in data set [1] was less than 4.00 in each case. This molecule had an Intrinsic activity in data set [4] of 0.01.

Take `O=C(Cc1ccccn1)Nc1ccc(CCNC[C@H](O)COc2cccc3[nH]c(=O)[nH]c23)cc1`: in data set [1], the negative logarithm of the EC50 (pEC50) is less than 4.00.

With `O=C(Cc1nccn1Cc1ccc2ccccc2c1)Nc1ccc(CCNC[C@H](O)COc2ccccc2)cc1`, the negative logarithm of the EC50 (pEC50) in data set [1] is less than 4.00.

In data set [1], `O=C(Cc1cccc(Cl)n1)Nc1ccc(CCNC[C@H](O)COc2ccccc2)cc1` showed a pEC50 of less than 4.00.

Molecule `O=C(Cc1nc2ccccc2n1Cc1ccccc1)Nc1ccc(CCNC[C@H](O)COc2ccccc2)cc1` gave a pEC50 in data set [1] of less than 4.00.

`O=C(Cc1cn(Cc2ccccc2)cn1)Nc1ccc(CCNC[C@H](O)COc2ccccc2)cc1` gave a pEC50 in data set [1] of less than 4.00.

In data set [1], `CC(Cc1ccc(NC(=O)Cc2nccn2Cc2ccccc2)cc1)NC[C@H](O)COc1ccccc1` (single isomer, unassigned; diastereomer I) showed a negative logarithm of the EC50 (pEC50) of 7.57.

`O=C(Cc1nccn1Cc1ccccc1)N1CCCc2cc(CCNC[C@H](O)COc3ccccc3)ccc21`: in data set [1], the pEC50 was less than 4.00.

Turning to `O=C(Cc1ccccn1)Nc1ccc(CCNC[C@H](O)COc2cccc3[nH]ccc23)cc1`, the pEC50 is 5.89 in data set [2], less than 4.00 in data set [3] and less than 4.00 in data set [1]. This molecule showed an Intrinsic activity in data set [4] of 0.

Turning to `Cc1cccnc1CC(=O)Nc1ccc(CCNC[C@H](O)COc2ccccc2)cc1`, the pEC50 in data set [2] was 6.48; in data set [3], 6.41; in data set [1], less than 4.00. In data set [4], the Intrinsic activity worked out at 0.18.

`CCCN(C(=O)Cc1nccn1Cc1ccccc1)c1ccc(CCNC[C@H](O)COc2ccccc2)cc1`: the pEC50 is 6.30 in data set [2], less than 4.00 in data set [3] and less than 4.00 in data set [1]. Also, in data set [4], the Intrinsic activity amounted to 0.01.

For `O=C(Cc1nccn1-c1ccccc1)Nc1ccc(CCNC[C@H](O)COc2ccccc2)cc1`, in data set [1], the negative-log EC50 (pEC50) is less than 4.00.
